B1: IL-31: cytokine whose receptor is a heterodimer of GPL and an OSMR subunit (protein, UniProt Q6EBC2 24-164, looked up)
Interleukin-31: SHTLPVRLLRPSDDVQKIVEELQSLSKMLLKDVEEEKGVLVSQNYTLPCLSPDAQPPNNIHSPAIRAYLKTIRQLDNKSVIDEIIEHLDKLIFQDAPETNISVPTDTHECKRFILTISQQFSECMDLALKSLTSGAQQATT

Experiments:
[1] = tested on: NHEK; experiment: S100A7 Western blotting in NHEK (Example 13); format: cell-based, human; details: 10 ng/ml, 96 h
Description: After 96 h of stimulation, NHEK lysis was performed as previously described (Boniface et al, 2005). After separation by SDS-PAGE, proteins were transferred to nitrocellulose membranes (Amersham pharmacia biotech) by electroblotting. S100A7 was detected with mouse anti-human S100A7 mAb (Imgenex, San Diego, Calif., USA) and sheep anti-mouse IgG peroxidase-conjugated polyclonal Ab (Amersham Biosciences). Bound Ab were detected by chemiluminescence (ECL Hyperfilm and ECL Plus Reagen, Amersham Biosciences Ltd).

[2] = tested on: NHEK; experiment: cDNA macroarrays analysis of 36 cytokines on 154 genes in NHEK; format: cell-based, human; details: 10 ng/ml, 24 h
Description: The comparison of the effects of 36 different cytokines on the expression of 154 genes of potential interest for skin physiology was performed using home-made cDNA macroarrays analysis. After cytokine stimulation, total RNA was extracted using TRIzoI® Reagent (Invitrogen life Technologies) and conventional 33P-cDNA target synthesis and hybridization were performed (Boniface et al, 2007). Genes were considered regulated if expression levels differed more than 3-fold relative to untreated control and 3-fold relative to mean background noise.

[3] = tested on: normal human keratinocytes (NHEK); experiment: Cytokine cocktails on S100A7, hBD2/4, KRT10 mRNA in NHEK (RT-Q-PCR); format: cell-based; details: NHEK 24 hrs, 1 ng/ml each
Description: (§1) Quantitative real time PCR was carried out using the LightCycler-FastStart DNA Master^PLUS SYBR Green I kit (Roche, Mannheim, Germany). The reaction components were 1× FastStart DNA Master^PLUS SYBR Green I and 0.5 μM of forward and reverse primers for S100A7 (forward 5′-[…]-3′ (SEQ ID No: 9) and reverse 5′-[…]-3′ (SEQ ID No: 10)), S100A8 (Pattyn, Speleman et al. 2003), S100A9 (forward 5′-[…]-3′ (SEQ ID No: 11) and reverse 5′-[…]-3′ (SEQ ID No: 12)), hBD2/4 (forward 5′-[…]-3′ (SEQ ID No: 13) and reverse 5′-[…]-3′ (SEQ ID No: 14)), KRT10 (forward 5′-[…]-3′ (SEQ ID No: 15) and reverse 5′-[…]-3′ (SEQ ID No: 16)), and hydroxymethyl-bilane synthase (HMBS) as a housekeeping gene (Vandesompele, De Preter et al. 2002). After cDNA fluorescent quantification using propidium iodide, 250 ng, 25 ng and 2.5 ng of cDNA were added as PCR template in the LightCycler glass capillaries. The cycling conditions comprised a 10 min polymerase activation at 95° C. and 50 cycles at 95° C. for 10 s, 64° C. for 5 s and 72° C. for 18 s with a single fluorescence measurement. […] A mathematical model was used to determine the relative quantification of target genes compared to HMBS reference gene (Pfaffl 2001).
To that aim, confluent normal human keratinocytes (NHEK) were treated for 24 hrs with the indicated mix of cytokines (each cytokine at 1 ng/ml final concentration). Total RNA was extracted, reverse-transcribed and the expression of the selected genes was analyzed by real-time PCR as described.

[4] = tested on: NHEK; experiment: RT-QPCR of antimicrobial peptide and chemokine genes in NHEK; format: cell-based, human; details: 10 ng/ml, 24 h
Description: (§2) NHEK were obtained as previously described, from surgical samples of healthy breast skin (Boniface et al, 2005). NHEK were cultured to 80% of confluence and then starved for 24 h in Keratinocyte SFM without addition of growth factors before stimulation. Cells were stimulated with or without 10 ng/ml of recombinant IL-17A, OSM, TNFα, IL-22 and IL-1α alone or in combination (R&D systems Europe, Lille, France) during 24 h for mRNA quantification or 48 h to 96 h for protein quantification.
NHEK and skin total RNA were isolated and reverse-transcribed as previously described (Boniface et al, 2005). Quantitative real time PCR was carried using the LightCycler-FastStart DNA Master SYBR® Green I kit on LightCycler 480 (Roche Diagnostics, Meylan, France). The reaction components were 1×DNA Master Mix, and 0.5 μM of HPLC purified sense and anti-sense oligonucleotides purchased from Eurogentec (Eurogentec France, Angers, France), designed using Primer3 software. Samples were normalized to three independent control housekeeping genes (G3PDH, RPL13A or ACTB for human samples and G3PDH, HMBS or B2m for mouse samples) and reported according to the ΔΔCT method as RNA fold increase: 2^ΔΔCT=2^ΔCT sample−ΔCT eference. For comparison of normal skin and psoriatic skin the REST 2008 software was used (Pfaffl et al., 2002).

[5] = tested on: NHEK; experiment: Cytokine measurement by ELISA in NHEK culture supernatants; format: cell-based, human; details: 10 ng/ml, 96 h
Description: as §2
Levels of BD2, BD3 and CXCL8 were determined using Human ELISA development kit (Peprotech), and CXCL1 and CXCL5 with DuoSet reagents (R&D Systems Europe).

[6] = tested on: NHEK; experiment: Keratinocyte differentiation marker (KDM) mRNA in NHEK (RT-PCR); format: cell-based, human; details: 24 h; for mRNA expression of CK1, DSG1, DSC1, FLG, CLSP, LOR and FABPS: single cytokines 10 ng/ml
Description: (§3) Normal human epidermal keratinocytes (NHEK) were obtained as previously described, from surgical samples of healthy breast skin (Boniface et al, 2005). NHEK were cultured to 80% of confluence allowing the expression of a large panel of keratinocyte differentiation markers, and then starved for 24 h in Keratinocyte SFM containing 0.03 mM Ca^2+ (Invitrogen Life Technologies, Cergy Pontoise, France) before stimulation. Confluent differentiated cells were stimulated with or without recombinant IL-17A, OSM, TNFα, IL-22 and IL-1α alone at maximum effective concentrations (reported previously around 10 ng/ml (Boniface et al, 2005 and Boniface et al, 2007)) or in combination (R&D systems Europe, Lille, France) during 2 h to 72 h for mRNA quantification. RHE were generated on polycarbonate culture inserts, from surgical samples of paediatric foreskins as previously described (Guenou et al., 2009). RHE were stimulated with or without recombinant IL-17A, OSM, TNFα, IL-22 and IL-1α alone or in combination, with or without a Janus protein Tyrosine Kinases (JAKs) inhibitor 10 μM (Calbiochem, 420099), during 24 h for mRNA quantification or during 72 h for immunohistological analysis.
(§4) NHEK, RHE and murine skin total RNA were isolated using NucleoSpin® RNA II kit (Macherey-Nagel, Hoerdt, France) and reverse-transcribed with SuperScript® II Reverse Transcriptase (Invitrogen Life Technologies) according to the manufacturer's instructions. Quantitative real time PCR was carried out using the LightCycler-FastStart DNA Master SYBR® Green I kit on LightCycler 480 (Roche Diagnostics, Meylan, France). The reaction components were 1×DNA Master Mix, and 0.5 μM of HPLC purified sense and anti-sense oligonucleotides purchased from Eurogentec (Eurogentec France, Angers, France), designed using Primer3 software. The stability of the housekeeping gene expression has been assessed by using GeNorm algorithm. […] Thus samples were normalized to G3PDH housekeeping gene and reported according to the ΔΔCT method as RNA fold increase: 2^ΔΔCT=2^ΔCT sample−ΔCT reference.

[7] = tested on: RHE; experiment: RHE histology and immunohistochemistry (Example 14); format: cell-based, human; details: single cytokines, 72 h
Description: as §3
RHE were washed and fixed with formaldehyde solution. Fixed tissues were dehydrated with increasing ethanol concentrations, embedded in paraffin and sections were carried out using a microtome (4 μm thickness). The sections were deparaffinised, washed and incubated with hydrogen peroxide. The sections were incubated with anti-CK10 (SantaCruz, SC-23877), anti-LOR (Eurogentec, PRB-145P), anti-FLG (SantaCruz, SC-66192), anti-IVL (Biomedical Technologies, BT-601), anti-S100A7 (Clinisciences, IMG-409A) and then detected using a biotin-conjugated secondary antibody (Vector, RTU vectastain universal quick kit, PK-7800). After peroxidase-conjugated streptavidine (Vector, RTU vectastain universal quick kit, PK-7800) and peroxidase substrate addition (Dako, Substrat hyper-sensible AEC+), nuclei were counter-stained using a solution of hematoxylin. Sections were observed using a NIKON E400 microscope. The images were captured using a NIKON DS-Ril and processed with NIS-Elements 3.10 software.

[8] = tested on: RHE; experiment: KDM mRNA in reconstituted human epidermis (RT-PCR); format: cell-based; details: 24 h
Description: as §3, §4

[9] = tested on: STAT3; experiment: STAT3 phosphorylation in NHEK (Western blot); format: cell-based, human; details: NHEK stimulated 15 min with the cytokine
Description: For STAT3 and MAPK phosphorylation, NHEK were stimulated for 15 min in the presence of the indicated cytokine. Cells were lysed in SDS sample buffer (62.5 mM Tris-HCl pH 6.8, 2% SDS, 10% glycerol, 50 mM DTT, 0.1% bromophenol blue), sonicated and then submitted to SDS-PAGE and transferred onto an Immobilon membrane. The membranes were subsequently incubated overnight with the primary antibody, before being incubated with the appropriate peroxidase-labelled secondary antibody for 60 min. The reaction was visualized by chemiluminescence according to the manufacturer's instructions. Membranes were stripped in 0.1 M glycine pH 2.8 for 2 h and neutralized in 1 M Tris-HCl pH 7.6 before reblotting. For neutralizing experiments, NHEK were incubated with the appropriate antibodies for 2 h before stimulation.

[10] = tested on: NHEK; experiment: RT-real time PCR of S100 mRNA in cytokine-stimulated NHEK; format: cell-based, human; details: IL-31
Description: as §1

[11] = tested on: NHEK; experiment: In vitro keratinocyte migration assay; format: cell-based, human; details: mitomycin-treated wounded NHEK; OSM 10 ng/ml, IL-31 100 ng/ml
Description: Keratinocytes were cultured in wells pre-coated with type I collagen (200 μg/ml, Institut Jacques Boy, Reims, France) until they reached 80% confluency. Cells were starved for 48 h in Keratinocyte SFM and then treated with 10 μg/ml of mitomycin C (Sigma) for 2 h to prevent cell proliferation. A cell-free area was created by scraping the keratinocyte monolayer with a plastic pipette tip. Keratinocytes migration to the cell-free area was evaluated after 48 h of culture in the absence or presence of EGF or OSM. Using an inverted phase contrast microscope. The number of migrating keratinocytes was counted in 4 non-overlapping fields. Values represent the mean±SEM of cells per mm^2 beyond the frontiers of the in vitro injury. Student's t test was used for statistical analysis.

Row | Molecule | S100A7 expression in NHEK (western blotting) [1] | Number of genes (of 154) whose expression is modified with at least a three fold increase or decrease [2] | Effect of depleting the cytokine from the mix on activity of the complete cocktail [3] | Number of the 21 chemokine and antimicrobial peptide genes upregulated [4] | BD2 production, single cytokines [5] | BD3 production [5] | CXCL1, CXCL5, CXCL8 production, single cytokines [5] | Number of KDM whose control mRNA expression is partially restored on removal of the cytokine from M5 [6] [KDM] | mRNA expression of CK1, DSG1, DSC1, FLG, CLSP, LOR and FABPS [6] | CK10, LOR and FLG expression (immunohistology) ([7]; RHE) | RHE histology [7] | IVL expression (immunohistology) ([7]; RHE) | S100A7 expression (immunohistology) ([7]; RHE) | Expression of KDM mRNA (CK10, CK1, LOR, FLG) [8] | S100A7 mRNA expression [8] | STAT3 tyrosine phosphorylation (P-STAT3) [9] | Expression of psoriasin and calgranulin A and B (S100A8-9) [10] | Keratinocyte migration to the cell-free area [11]
1 | IL-1α: recombinant cytokine IL-1α | most potent inducer | at least five genes | did not significantly decrease the activity | 19 | most potent inducers | significant increase | most effective | 3 | minor activities | did not exhibit any activity | does not modify RHE histology | – | – | – | – | – | – | –
2 | IL-22: recombinant cytokine IL-22 | – | at least five genes | did not significantly decrease the activity | 14 | – | significant increase | discrete effect | 4 | downregulate mRNA expression | decreases expression of CK10, LOR and FLG | significant keratinocyte hyperplasia | strongly | strongly induced | most active cytokines | strongly induced | – | – | –
3 | LIF: leukemia inhibitory factor, cytokine of the IL-6 family | – | – | – | – | – | – | – | – | – | – | – | – | – | – | – | no evidence for a STAT3 activation | – | –
4 | B1 | – | – | – | – | – | – | – | – | – | – | – | – | – | – | – | recruits STAT3 signaling pathways | induces expression | able to induce keratinocyte migration

— patent US10080779B2, “Method for increasing the expression of anti-microbial peptides by keratinocytes comprising administering a composition comprising IL-17, TNF-alpha and OSM” (Universite D'Angers, priority 2004, dated 2018)
